Assays:
[1] = system: newly diagnosed type II diabetes patients; experiment: 4-hour postprandial plasma glucose (Cavg) following breakfast, 14-day repeat-dose placebo-controlled study; format: in vivo, human; conditions: for mean reduction from baseline in Cavg B / mean reduction in Cavg B calculated as a percent change: fourteen days of treatment; for 4-hour postprandial plasma glucose following breakfast, Day 14 Actual, Mean: 14 days; for 4-hour postprandial plasma glucose, Difference in Change from Baseline from Placebo, LS Mean: Day 14, ANCOVA; for 4-hour postprandial plasma glucose following breakfast, Day 14 Change from Baseline, Mean: baseline Day −1
Description: Data was collected at each study visit.
The primary efficacy analysis was based on change in mean 4-hour prandial glucose concentrations (Cavg) from Day −1 to Day 14. Table A summarizes the primary efficacy endpoint measured following breakfast.

[2] = system: newly diagnosed type II diabetes patients; experiment: Glycosylated hemoglobin (HbA1c), 14-day repeat-dose placebo-controlled study; format: in vivo, human; conditions: for HbA1c, Difference in Change from Baseline from Placebo, LS Mean: Day 15, ANCOVA; for HbA1c, Day 15 Change from Baseline, Mean: baseline Day −7
Experimental: (§1) Blood samples were collected on Days 6, 16, 17, and 21 for analysis of efficacy based on change in mean 4-hour postprandial plasma glucose (Cavg) from Day −1 to Day 14. Secondary efficacy endpoints included mean 4-hour prandial fructosamine, and glycosylated hemoglobin (HbA1c). Data was collected at each study visit. Inhibition of DPPIV activity was also determined using an assay validated for human plasma samples.

[3] = system: newly diagnosed type II diabetes patients; experiment: Fasting fructosamine, 14-day repeat-dose placebo-controlled study; format: in vivo, human; conditions: for Fasting Fructosamine, Day 15 Actual, Mean: type II diabetes patients; for Fasting Fructosamine, Difference in Change from Baseline from Placebo, LS Mean: Day 15, ANCOVA; for Fasting Fructosamine, Day 15 Change from Baseline, Mean: baseline Day −7
Experimental: as §1

[4] = system: Male db/db (BKS.Cg-+Lepr^db/+Lepr^db) mice; experiment: Co-administration with pioglitazone: glycosylated hemoglobin levels in mice; format: in vivo; conditions: 21 days in powder chow: 0.03% (w/w) benzoate salt of Compound I and/or 0.0075% (w/w) pioglitazone hydrochloride, n=8, mean ± SD
Experimental: Male db/db (BKS.Cg-+Lepr^db/+Lepr^db) mice (6 weeks of age, CLEA Japan (Tokyo, Japan)) were divided into 4 groups (n=8 in each group) comprising Group A to Group D. Group A had free access to CE-2 powder chow (CLEA Japan) for 21 days. […] Group C had free access to CE-2 powder chow (CLEA Japan) containing 0.0075% (w/w) of pioglitazone hydrochloride for 21 days. The dose of pioglitazone in Group C was calculated to be 15.4±1.5 (mean±SD) mg/kg body weight/day. […] During 21 days of administration of the powder chow, there were not significant differences in the administration amount of the powder chow in the above 4 groups. After 21 days of administration of the powder chow, blood samples were taken from the orbital veins of the mice by capillary pipette under feeding condition, and Glycosylated hemoglobin levels were measured by HPLC-based method using TOSOH automated GHb Analyzer HLC-723 G7 (TOSOH, Japan).
The values in the table means average (n=8)±standard deviation.

[5] = system: newly diagnosed type II diabetes patients; experiment: Glycosylated hemoglobin (HbA1c), 14-day repeat-dose placebo-controlled study; format: in vivo, human; conditions: one time per day at the specified dosage levels, extended treatment; expected
[6] = system: newly diagnosed type II diabetes patients; experiment: Fasting fructosamine, 14-day repeat-dose placebo-controlled study; format: in vivo, human; conditions: for Fasting Fructosamine, Difference in Change from Baseline from Placebo, LS Mean: Day 15, ANCOVA

Cn1c(=O)cc(N2CCC[C@@H](N)C2)n(Cc2ccccc2C#N)c1=O [Compound I, 2-[[6-[(3R)-3-amino-1-piperidinyl]-3,4-dihydro-3-methyl-2,4-dioxo-1(2H)-pyrimidinyl]methyl]-benzonitrile]
mean reduction from baseline in Cavg B ([1]; 25 mg group): 33 mg/dL | mean reduction in Cavg B calculated as a percent change ([1]; 25 mg group): 15% | 4-hour postprandial plasma glucose following breakfast, Day 14 Actual, Mean ([1]; 25 mg/day, type II diabetes patients): 203.2 mg/dL | 4-hour postprandial plasma glucose, Difference in Change from Baseline from Placebo, LS Mean ([1]; 25 mg/day): -39.9 mg/dL | 4-hour postprandial plasma glucose following breakfast, Day 14 Change from Baseline, Mean ([1]; 25 mg/day): -32.5 mg/dL | mean reduction from baseline in Cavg B ([1]; 100 mg group): 37 mg/dL | mean reduction in Cavg B calculated as a percent change ([1]; 100 mg group): 17% | 4-hour postprandial plasma glucose following breakfast, Day 14 Actual, Mean ([1]; 100 mg/day, type II diabetes patients): 173.5 mg/dL | 4-hour postprandial plasma glucose, Difference in Change from Baseline from Placebo, LS Mean ([1]; 100 mg/day): -48.6 mg/dL | 4-hour postprandial plasma glucose following breakfast, Day 14 Change from Baseline, Mean ([1]; 100 mg/day): -37.2 mg/dL | mean reduction from baseline in Cavg B ([1]; 400 mg group): 66 mg/dL | mean reduction in Cavg B calculated as a percent change ([1]; 400 mg group): 24% | 4-hour postprandial plasma glucose following breakfast, Day 14 Actual, Mean ([1]; 400 mg/day, type II diabetes patients): 198.6 mg/dL | 4-hour postprandial plasma glucose, Difference in Change from Baseline from Placebo, LS Mean ([1]; 400 mg/day): -68.3 mg/dL | 4-hour postprandial plasma glucose following breakfast, Day 14 Change from Baseline, Mean ([1]; 400 mg/day): -65.6 mg/dL | 4-hour postprandial plasma glucose following breakfast, Day 14 Actual, Mean ([1]; All Active (25, 100, 400 mg/day combined)): 191.8 mg/dL | 4-hour postprandial plasma glucose, Difference in Change from Baseline from Placebo, LS Mean ([1]; All Active): -52.3 mg/dL | 4-hour postprandial plasma glucose following breakfast, Day 14 Change from Baseline, Mean ([1]; All Active): -44.3 mg/dL | Glycosylated Hemoglobin (HbA1c), Day 15 Actual, Mean ([2]; 25 mg/day for 14 days, type II diabetes patients): 7.76% | HbA1c, Difference in Change from Baseline from Placebo, LS Mean ([2]; 25 mg/day): −0.27% | HbA1c, Day 15 Change from Baseline, Mean ([2]; 25 mg/day): −0.22% | Glycosylated Hemoglobin (HbA1c), Day 15 Actual, Mean ([2]; 100 mg/day for 14 days, type II diabetes patients): 7.25% | HbA1c, Difference in Change from Baseline from Placebo, LS Mean ([2]; 100 mg/day): −0.45% | HbA1c, Day 15 Change from Baseline, Mean ([2]; 100 mg/day): −0.40% | Glycosylated Hemoglobin (HbA1c), Day 15 Actual, Mean ([2]; 400 mg/day for 14 days, type II diabetes patients): 7.82% | HbA1c, Difference in Change from Baseline from Placebo, LS Mean ([2]; 400 mg/day): −0.32% | HbA1c, Day 15 Change from Baseline, Mean ([2]; 400 mg/day): −0.28% | Glycosylated Hemoglobin (HbA1c), Day 15 Actual, Mean ([2]; All Active, 14 days): 7.60% | HbA1c, Difference in Change from Baseline from Placebo, LS Mean ([2]; All Active): −0.35% | HbA1c, Day 15 Change from Baseline, Mean ([2]; All Active): −0.30% | Fasting Fructosamine, Day 15 Actual, Mean ([3]; 25 mg/day for 14 days): 310.7 µmol/L | Fasting Fructosamine, Difference in Change from Baseline from Placebo, LS Mean ([3]; 25 mg/day): -9.6 µmol/L | Fasting Fructosamine, Day 15 Actual, Mean ([3]; 100 mg/day for 14 days): 263.9 µmol/L | Fasting Fructosamine, Day 15 Change from Baseline, Mean ([3]; 100 mg/day): -25.6 µmol/L | Fasting Fructosamine, Day 15 Actual, Mean ([3]; 400 mg/day for 14 days): 312.6 µmol/L | Fasting Fructosamine, Day 15 Change from Baseline, Mean ([3]; 400 mg/day): -19.9 µmol/L | Fasting Fructosamine, Difference in Change from Baseline from Placebo, LS Mean ([3]; All Active): -28.6 µmol/L | Fasting Fructosamine, Day 15 Change from Baseline, Mean ([3]; All Active): -12.9 µmol/L | Glycosylated Hemoglobin (%) [4]: 5.8 ± 0.5% | decrease of hemoglobin A1c level compared to placebo control [5]: greater than 0.5% | Fasting Fructosamine, Day 15 Change from Baseline, Mean ([6]; 25 mg/day, baseline Day −7): 6.3 µmol/L | Fasting Fructosamine, Difference in Change from Baseline from Placebo, LS Mean ([6]; 100 mg/day): -42.9 µmol/L | Fasting Fructosamine, Difference in Change from Baseline from Placebo, LS Mean ([6]; 400 mg/day): -33.2 µmol/L | Fasting Fructosamine, Day 15 Actual, Mean ([6]; All Active, 14 days): 295.3 µmol/L

CCc1ccc(CCOc2ccc(CC3SC(=O)NC3=O)cc2)nc1 (stereo not drawn) [Pioglitazone, 5-{[4-(2-(5-ethyl-2-pyridyl)ethoxy)phenyl]-methyl}-thiazolidine-2,4-dione, reference compound]
Glycosylated Hemoglobin (%) [4]: 5.0 ± 0.7%
